The source of these data is US20230257350A1, “COMPOUNDS AND METHODS OF PROMOTING OLIGODENDROCYTE PRECURSOR DIFFERENTIATION” (The Cleveland Clinic Foundation, priority 2020, published 2023).

Data set [1] deals with oligodendrocyte progenitor cells (OPC). Briefly: 96-well OPC screening platform: oligodendrocyte generation from primary OPCs. The settings on record: for EC50: Mus musculus, Oligodendrocyte progenitor cell. The class given is cell-based, mouse. As to the method:
1) an optimized method to produce primary culture of highly pure mouse oligodendrocyte progenitor cells (OPC); and
2) an algorithm to identify and quantify oligodendrocytes in 96-well format.
(§1) Briefly, the high-throughput small molecule screen included a primary screening where small drug-like organic compounds ([…]) are added to cells seeded on a 96-well plate an incubated. The cells are then visually screened for oligodendrocyte precursor morphology changes. In a secondary screening, differentiation induced by selected compounds was further validated by fluorescence microscopy. Increased fluorescence in treated oligodendrocyte cells generated from a PIp-EGFP transgenic mouse was indicative of cell maturation. Further oligodendrocyte precursor maturation in response to selected compounds was assessed by induction of myelin protein expression as determined by immunocytochemistry and western blot.
Using the 96-well OPC-screening platform, a CNS-bias library of 20,000 drug-like small molecule compounds (Cambridge Co., San Diego, Calif.) was screened, using DMSO as a negative control and T3 (triiodothyronine) as a positive control. Initial screening was at 10 μM, and 390 primary hits were identified. Further testing confirmed that 57 compounds produced at least 50% response of T3.

A short description of data set [2]: MTT assay (viability). The class given is cell-based. The settings on record: up to 30 μM. Background: Formazan colour is commonly taken as a measure of viable cells.
Data set [3] is described as follows: Preliminary pharmacokinetic analysis, i.p. injection, LC/MS/MS of plasma and brain. The settings on record: i.p. 10 mg/kg, mice. The class given is in vivo.
The nature of data set [4]: Solubility. The class given is physicochemical.
Data set [5] concerns cuprizone mouse model of demyelination/remyelination. Briefly: Cuprizone/rapamycin demyelination and remyelination model. In kind it is in vivo, mice. The settings on record: i.p. daily 6 weeks, 10 mg/kg, vs control. From the text:
2016; 283(Pt A): 330-340, which is incorporated herein by reference in its entirety. […] At the end of the treatment period, mice were perfused and different tissues analyzed for remyelination. In cortex and hippocampus, PLP antibody staining was used to assess remyelination. In corpus callosum, the number of myelinated axons in semi-thin (1 μm) Epon sections was quantified. […] This in vivo animal data further validates a strategy of using cell-based phenotypic screening to identify remyelination compounds.

Data set [6] has as its system OPCs (PLP-EGFP). Briefly: Immunostaining of oligodendrocyte markers PLP and MBP in treated OPCs. In kind it is cell-based, mouse. The settings on record: 4 days treatment. How it is done: as §1
Finally, similar activation of oligodendrocyte markers was observed when wild-type OPCs were treated with the “hit” compounds, eliminating the possibility that expression of the EGFP construct affected the results.

The EC50 is the midpoint of the concentration-response curve. Consider `Cc1cc(Cl)cc(C)c1OCCCCN1CCC[C@H](C)C1` [CN329], for which the 50% effective concentration (EC50) in data set [1] (Table 2, OPC differentiation) came out at 42 nM. This counts as double-digit nanomolar.

Take `Cc1cc(Cl)cc(Cl)c1OCCOCCN1CCN(C)CC1` [CN265]: it took 540 nM to reach a half-maximal effect in data set [1] (Table 1, OPC differentiation) (EC50).

In data set [1] (Table 2, OPC differentiation), `Cc1cc(Cl)cc(C)c1OCCCCN1CCCCC1` [CN478] yielded an EC50 of 78 nM.

The viability is a per cent measure of how many cells are alive, often set against a control. Read a low viability as more harm to the cells. By solubility is commonly meant the concentration that dissolves in the medium under given conditions. `CC1CCN(CCOCCOc2c(Cl)cc(Cl)cc2Cl)CC1` [CN045]: the EC50 in data set [1] (Table 1, OPC differentiation) was 40 nM. Also, the “increase in the percentage of oligodendrocytes compared with DMSO controls” value in data set [1] (dose-response, FIG. 3B) is about 4 fold. Besides, the “efficacy compared with benztropine, clemastine or T3” value in data set [1] (same OPC assay, multiple concentrations, FIG. 2) is on record as “almost twice the efficacy”. Further, in data set [2], the viability is over 80%. For the same compound, the Kp in data set [3] (C57BU6J, mouse, ip, brain homogenate vs. plasma, read-out: brain/plasma ratio) is 0.8. Moreover, the “time of peak concentration following injection” value in data set [3] was about 2 h. In data set [4], this compound gave a solubility of over 500 µM. Also, in data set [5] (p<0.01), the “remyelination in corpus callosum (number of myelinated axons)” value is recorded as “significantly increased remyelination” and the “remyelination in cortex (PLP antibody staining)” value is “significantly increased remyelination”. Also, in data set [5] (p<0.05), the “remyelination in hippocampus (PLP antibody staining)” value is recorded as “significantly increased remyelination”. In data set [6], the “co-labeling of EGFP+ cells by PLP and MBP antibodies” value was “All EGFP+ cells were co-labeled by PLP and MBP antibodies”.

Take `CCc1cc(OCCOCCN2CCC(C)CC2)ccc1Cl` [CN049]: the EC50 in data set [1] (Table 1, OPC differentiation) came to 165 nM.

In turn, `Cc1ccc(OCCOCCN2CCC(C)CC2)c(Cl)c1` [CN570] registered an EC50 in data set [1] (Table 1, OPC differentiation) of 200 nM.

For the compound `CC1CCC(N2CCN(Cc3cccc(Br)c3)CC2)CC1` (centres unmarked) [CN007], in data set [1], the EC50 was 40 nM.

Regarding `Fc1cc(Cl)ccc1OC[C@@H]1CCCN2CCCC[C@H]12` [CN566], in data set [1] (Table 2, OPC differentiation), a half-maximal response (EC50) required 340 nM. This lies in the sub-micromolar range.

On to `Cc1cc(Cl)ccc1OCCOCCN1CCC(C)CC1` [CN918], for which, in data set [1] (Table 1, OPC differentiation), the EC50 was determined as 193 nM. This counts as sub-micromolar.

In the case of `Cc1cc(Cl)cc(C)c1OCCCCN1CCOCC1` [CN644], the EC50 in data set [1] (Table 2, OPC differentiation) amounted to 270 nM.
